Like-named read-outs stand apart in the source and are kept apart here. No end group written: not given here.
How the values were obtained:
[1] = biological target: T1, HLA A01.01 (Homo sapiens, UniProt P04439, A114D/A174V/A182V/D101N/D185E/E176A/E190D/L180R/Q94H/R68K/S129P/T187R/V100A/V91M/W191G); assay: MHC-I peptide binding affinity assay (displacement of radiolabeled reference peptide)
From the text: (§1) 31:813 (1994). […] 149:1896 (1992)).

[2] = biological target: T2, HLA A02.01 (Homo sapiens, UniProt P04439, D140Y/D185E/D98H/E176V/E277Q/G131W/G231S/I119V/I121R/I166T/I218V/L300P/L318F/N151K/N90K/P208A/P217A/Q86G/Q94H/R138H/R169H/T345S); assay: as above
Experimental: Likewise, ln(IC50) refers to the natural log of the IC50. […] Given the conditions in which the assays are run (i.e., limiting HLA protein and labeled reference peptide concentrations), these values approximate KD values. […] Alternatively, binding can be expressed relative to binding by a reference standard peptide. For example, can be based on its IC50, relative to the IC50 of a reference standard peptide.
(§6) In brief, MHCI complexes were prepared and bound to radiolabeled reference peptides. Peptides were incubated at varying concentrations with these complexes for 2 days, and the amount of remaining radiolabeled peptide bound to MHCI was measured using size exclusion gel-filtration.

[3] = biological target: T2, HLA A02.01; assay: MHC-I peptide binding stability assay (pMHC-I dissociation half-life); settings: HLA allele A02.01
Experimental: (§2) Briefly, synthetic genes encoding biotinylated MHC-I heavy and light chains are expressed in E. coli and purified from inclusion bodies using standard methods. The light chain (β2m) is radio-labeled with iodine (1251), and combined with the purified MHC-I heavy chain and peptide of interest at 18° C. to initiate pMHC-I complex formation. These reactions are carried out in streptavidin coated microplates to bind the biotinylated MHC-I heavy chains to the surface and allow measurement of radiolabeled light chain to monitor complex formation. Dissociation is initiated by addition of higher concentrations of unlabeled light-chain and incubation at 37° C. Stability is defined as the length of time in hours it takes for half of the complexes to dissociate, as measured by scintillation counts.

[4] = biological target: HLA A24.02; assay: MHC-I peptide binding affinity assay (displacement of radiolabeled reference peptide); set-up: species or system human; settings: Table 11, EGFR T790M peptides; HLA allele A24.02
From the text: as §1

[5] = biological target: T1, HLA A01.01; assay: MHC-I peptide binding stability assay (pMHC-I dissociation half-life); settings: HLA allele A01.01
Experimental: as §2

[6] = biological target: T3, HLA A03.01 (Homo sapiens, UniProt P04439); assay: as above; set-up: made in house; host or cells: E. coli; settings: Table 10, BTK C481S peptides; HLA allele A03.01
Experimental: as §2

[7] = biological target: T3, HLA A03.01; assay: MHC-I peptide binding affinity assay (displacement of radiolabeled reference peptide); set-up: made in house; host or cells: E. coli; settings: Table 10, BTK C481S peptides; HLA allele A03.01
From the text: as §1

[8] = biological target: HLA B07.02 (Homo sapiens, UniProt P01889); assay: as above; settings: Table 11, EGFR T790M peptides; HLA allele B07.02
From the text: as §1

[9] = biological target: HLA B08.02; assay: as above; set-up: species or system human; settings: Table 11, EGFR T790M peptides; HLA allele B08.02
From the text: as §1

[10] = tested on: HLA A24.02; assay: MHC-I peptide binding stability assay (pMHC-I dissociation half-life); set-up: species or system human; settings: Table 11, EGFR T790M peptides; HLA allele A24.02
Experimental: as §2

[11] = biological target: HLA B08.01 (Homo sapiens, UniProt P01889, A93T/A95T/D138N/E176V/E187T/K202T/Q94N/R180D/S35A/V36M/Y33D/Y91F); settings: read-out: Affinity
From the text: As used herein, the term “affinity” refers to a measure of the strength of binding between two members of a binding pair, for example, an HLA-binding peptide and a class I or II HLA. K D is the dissociation constant and has units of molarity. The affinity constant is the inverse of the dissociation constant. An affinity constant is sometimes used as a generic term to describe this chemical entity. It is a direct measure of the energy of binding. Affinity may be determined experimentally, for example by surface plasmon resonance (SPR) using commercially available Biacore SPR units. […] Likewise, ln(IC50) refers to the natural log of the IC50. Koff refers to the off-rate constant, for example, for dissociation of an HLA-binding peptide and a class I or II HLA. […] Given the conditions in which the assays are run (i.e., limiting HLA protein and labeled reference peptide concentrations), these values approximate KD values. […] Alternatively, binding can be expressed relative to binding by a reference standard peptide. For example, can be based on its IC50, relative to the IC50 of a reference standard peptide.
as §6

[12] = tested on: T2 or HLA-A0201 transfected C1Rs pulsed with peptide; assay: IFNγ ELISpot assay; format: cell-based, human; settings: number of donors responding out of 2; HLA-A02:01 peptides
Experimental: In some embodiments the immunogenicity is measured by measuring a protein or peptide expressed by the T cell, using ELISpot assay. Peptide-specific T cells are functionally enumerated using the ELISpot assay (BD Biosciences), which measures the release of IFNγ from T cells on a single cell basis. Target cells (T2 or HLA-A0201 transfected C1Rs) were pulsed with 10 μM peptide for one hour at 37 degrees C., and washed three times. 1×10^5 peptide-pulsed targets are co-cultured in the ELISPOT plate wells with varying concentrations of T cells (5×10^2 to 2×10^3) taken from the immunogenicity culture. Plates are developed according to the manufacturer's protocol, and analyzed on an ELISPOT reader (Cellular Technology Ltd.) with accompanying software. Spots corresponding to the number of IFN gamma-producing T cells are reported as the absolute number of spots per number of T cells plated. T cells expanded on modified peptides are tested not only for their ability to recognize targets pulsed with the modified peptide, but also for their ability to recognize targets pulsed with the parent peptide. Some exemplary data are shown below in Table 13.

[13] = tested on: MHC protein encoded by HLA-C03:04 allele; assay: Identification of MHC-bound epitope by mass spectrometry; format: cell-based, human; settings: MHC encoded by HLA-C03:04 allele
From the text: (§3) In some embodiments, antigenic peptides comprising an epitope may be identified by mass spectrometry to be bound to an MHC encoded by an HLA.
(§4) Provided herein are KRAS epitopes each of which specifically can bind to the MHC protein encoded by the alleles indicated in right hand column in the same row of Table 1, that have been identified to bind to the MHC protein by mass spectrometry, and that each epitope is presented to T cells by association with the MHC protein in the respective right hand column for each row in Table 1.
(§5) To assess whether antigens could be processed and presented from the larger polypeptide context, peptides eluted from HLA molecules isolated from cells expressing the genes of interest were analyzed by tandem mass spectrometry (MS/MS).

[14] = tested on: MHC protein encoded by HLA-C03:03 allele; assay: as above; format: cell-based, human; settings: MHC encoded by HLA-C03:03 allele
From the text: as §3, §4, §5

[15] = biological target: T3, HLA A03.01; assay: HLA-peptide elution and targeted MS/MS (PRM) presentation assay; format: cell-based; set-up: expressed in transfected cells; SW620 cells (lentiviral transduction)
Experimental: as §5
For analysis of presentation of RAS neoantigens, cell lines were utilized that have RAS mutations naturally or were lentivirally transduced to express the mutated RAS gene. HLA molecules were either isolated based on the natural expression of the cell lines or the cell lines were lentivirally transduced or transiently transfected to express the HLA of interest. […] Greater than 50 million cells expressing peptides encoded by a mutant RAS peptide were cultured and peptides were eluted from HLA-peptide complexes using an acid wash. Eluted peptides were then analyzed by targeted MS/MS with parallel reaction monitoring (PRM). […] Endogenous peptide spectrum is shown in the top panel and the corresponding stable heavy-isotopically labeled spectrum is shown in the bottom panel.

[16] = Table 11, EGFR T790M peptides, HLA allele A02.01, read-out: Affinity
[17] = Table 10, BTK C481S peptides, HLA allele A01.01, read-out: Affinity

CC[C@H](C)[C@H](NC(=O)[C@H](CC(C)C)NC(=O)[C@H](CCC(N)=O)NC(=O)[C@@H](NC(=O)[C@@H](NC(=O)[C@H](CO)NC(=O)[C@@H](NC(=O)[C@H](CC(C)C)NC(=O)[C@@H](N)CS)[C@@H](C)O)[C@@H](C)O)C(C)C)C(=O)N[C@@H](CCSC)C(=O)O
IC50 [1]: 8280 nM | IC50 [2]: 537 nM

CC[C@H](C)[C@H](N)C(=O)N[C@@H](CCSC)C(=O)N[C@@H](CCC(N)=O)C(=O)N[C@@H](CC(C)C)C(=O)N[C@@H](CCSC)C(=O)N1CCC[C@H]1C(=O)N[C@@H](Cc1ccccc1)C(=O)NCC(=O)N[C@@H](CS)C(=O)N[C@@H](CC(C)C)C(=O)O
Stability (half-life (hr.)) ([3]; Table 11, EGFR T790M peptides): 30.94 min | IC50 [4]: 14100 nM | IC50 [2, 16]: 653 nM

CC[C@H](C)[C@H](NC(=O)[C@@H](N)CC(C)C)C(=O)N[C@@H](CCSC)C(=O)N[C@@H](CCC(N)=O)C(=O)N[C@@H](CC(C)C)C(=O)N[C@@H](CCSC)C(=O)N1CCC[C@H]1C(=O)N[C@@H](Cc1ccccc1)C(=O)NCC(=O)N[C@@H](CS)C(=O)O
Stability (half-life (hr.)) ([3]; Table 11, EGFR T790M peptides): 22.88 min | IC50 [2, 16]: 132 nM

CSCC[C@H](N)C(=O)N[C@@H](C)C(=O)N[C@@H](CC(N)=O)C(=O)NCC(=O)N[C@@H](CO)C(=O)N[C@@H](CC(C)C)C(=O)N[C@@H](CC(C)C)C(=O)N[C@@H](CC(N)=O)C(=O)N[C@@H](Cc1ccc(O)cc1)C(=O)O
Stability (half-life (hr.)) ([5]; Table 10, BTK C481S peptides): 12.98 min | Stability (half-life (hr.)) [6]: 14.3 min | IC50 [1, 17]: 439 nM | IC50 [7]: 35.6 nM

CSCC[C@H](NC(=O)[C@H](CC(C)C)NC(=O)[C@H](CCC(N)=O)NC(=O)[C@@H](N)CCSC)C(=O)N1CCC[C@H]1C(=O)N[C@@H](Cc1ccccc1)C(=O)NCC(=O)N[C@@H](CS)C(=O)N[C@@H](CC(C)C)C(=O)O
Stability (half-life (hr.)) ([3]; Table 11, EGFR T790M peptides): 22.1 min | IC50 [8]: 1590 nM | IC50 [2, 16]: 116 nM

CSCC[C@H](NC(=O)[C@H](CC(C)C)NC(=O)[C@H](CCC(N)=O)NC(=O)[C@@H](N)CCSC)C(=O)N1CCC[C@H]1C(=O)N[C@@H](Cc1ccccc1)C(=O)NCC(=O)N[C@@H](CS)C(=O)N[C@@H](CC(C)C)C(=O)N[C@@H](CC(C)C)C(=O)O
Stability (half-life (hr.)) ([3]; Table 11, EGFR T790M peptides): 22.87 min | IC50 [4]: 18900 nM | IC50 [2, 16]: 16.3 nM

CC[C@H](C)[C@H](NC(=O)[C@H](CC(C)C)NC(=O)[C@@H](N)CCC(N)=O)C(=O)N[C@@H](CCSC)C(=O)N[C@@H](CCC(N)=O)C(=O)N[C@@H](CC(C)C)C(=O)N[C@@H](CCSC)C(=O)N1CCC[C@H]1C(=O)N[C@@H](Cc1ccccc1)C(=O)O
Stability (half-life (hr.)) ([3]; Table 11, EGFR T790M peptides): 20.44 min | IC50 [4]: 2030 nM | IC50 [9]: 5590 nM | Stability (half-life (hr.)) [10]: 22.12 min | IC50 [2, 16]: 193 nM

CSCC[C@H](NC(=O)[C@H](CCC(=O)O)NC(=O)[C@H](CCCNC(=N)N)NC(=O)[C@H](CC(C)C)NC(=O)[C@H](Cc1ccc(O)cc1)NC(=O)[C@H](CC(N)=O)NC(=O)[C@H](CC(C)C)NC(=O)[C@H](CC(C)C)NC(=O)[C@@H](N)CO)C(=O)O
IC50 [11]: 960 nM | Stability (half-life (hr.)) ([3]; Table 10, BTK C481S peptides): 182.6 min

CC[C@H](C)[C@H](NC(=O)[C@H](CC(C)C)NC(=O)[C@H](CCC(N)=O)NC(=O)[C@@H](N)C(C)C)C(=O)N[C@@H](CCSC)C(=O)N[C@@H](CCC(N)=O)C(=O)N[C@@H](CC(C)C)C(=O)N[C@@H](CCSC)C(=O)N1CCC[C@H]1C(=O)N[C@@H](Cc1ccccc1)C(=O)O
IC50 [4]: 4100 nM | IC50 [2, 16]: 4940 nM

FLGYLILGV
Immunogenicity (# donors/2) [12]: 1 # donors/2

FLTPKKLQCV
Immunogenicity (# donors/2) [12]: 1 # donors/2

FQNSYTIGL
Immunogenicity (# donors/2) [12]: 2 # donors/2

FQYPEFSIEL
Immunogenicity (# donors/2) [12]: 1 # donors/2

GACGVGKSA
binding to MHC protein, identified by mass spectrometry [13]: specifically binds

GAVGVGKSA
binding to MHC protein, identified by mass spectrometry [14]: specifically binds

ILNDTGCHYV
Immunogenicity (# donors/2) [12]: 1 # donors/2

IMQLMPFGC
Stability (half-life (hr.)) ([3]; Table 11, EGFR T790M peptides): 22.21 min | IC50 [2, 16]: 1210 nM

LIMQLMPFG
IC50 [2, 16]: 3340 nM

LLANDLMLI
Immunogenicity (# donors/2) [12]: 2 # donors/2

LLANGRMPTV
Immunogenicity (# donors/2) [12]: 2 # donors/2

LTSTVQLIM
Stability (half-life (hr.)) ([5]; Table 11, EGFR T790M peptides): 6.222 min | IC50 ([1]; Table 11, EGFR T790M peptides, HLA allele A01.01, read-out: Affinity): 2890 nM

QLIMQLMPFG
IC50 [2, 16]: 5210 nM

RLIWLVKMV
Immunogenicity (# donors/2) [12]: 1 # donors/2

STVQLIMQL
IC50 [2]: 7260 nM

VLDCCISLL
Immunogenicity (# donors/2) [12]: 1 # donors/2

VVVGAVGVGK
HLA-eluted peptide detected by mass spectrometry ([15]; 293T cells lentivirally transduced with RAS G12V mutation and HLA-A*03:01 gene): detected | HLA-eluted peptide detected by mass spectrometry ([15]; SW620 cells naturally expressing RAS G12V, lentivirally transduced with HLA-A*03:01 gene): detected

YMANGSLLNY
Stability (half-life (hr.)) ([5]; Table 10, BTK C481S peptides): 51.97 min | Stability (half-life (hr.)) [6]: 16.75 min | IC50 [1, 17]: 13.2 nM | IC50 [7]: 95.9 nM

Source: US20230398218A1, “RAS NEOANTIGENS AND USES THEREOF” (priority 2020, published 2023)
